The structures appear in SMILES notation.

This is an account of results in US20240262848A1, “HETEROCYCLIC COMPOUNDS, COMPOSITIONS THEREOF, AND METHODS OF TREATMENT THEREWITH” (BeiGene, Ltd., priority 2022, published 2024).

Test [1] concerns the target GST-tagged GDP-loaded KRAS G12D (amin acids 1-188) (Homo sapiens, UniProt P01116, G12D). The test is described as follows: KRAS G12D probe displacement assay (TR-FRET). It is filed as binding. The note with it: Table 5; KRAS G12D 0.5 nM, biotinylated probe 2 4 nM. On the procedure: Plates are incubated at 24° C. for 1 hr.
On the technique in general: In TR-FRET formats the signal depends on donor and acceptor labels being close together.

The subject of test [2] is pERK1/2(THR202/TYR204) level in AsPC-1 cell line. The test is described as follows: KRAS G12D pERK assay in AsPC-1 cells (HTRF). Format: cell-based. The note with it: Homo sapiens, ASPC1, Table 5, 2 h compound treatment. Here is the method: AsPC-1 cell line was used in this study. Cells were maintained in RPMI-1640 supplemented with 10% fetal bovine serum (Thermo Fisher), 50 units/ml, penicillin and streptomycin (Thermo Fisher) and kept at 37° C. in a humidified atmosphere of 5% CO2 in air. Cells were reinstated from frozen stocks that were laid down within 30 passages from the original cells purchased. 30000 cells per well were seeded into a 96-well plate and incubated overnight. Cells were treated with a 10-point dilution series. The final compound concentration is from 0 to 10 μM. After 2 h compound treatment, cells were lysed, and the pERK1/2(THR202/TYR204) level in the cell lysates was detected by HTRF kit (Cisbio). In brief, a total of 16 μL of cell lysate from each well of a 96-well plate was transferred to a 384-well white assay plate. Lysate from each well was incubated with 2 μL of Eu3+-cryptate (donor) labeled anti-phospho-ERK1/2 and 2 μL of D2 (acceptor) labeled anti-phospho-ERK1/2 antibodies (Cisbio) overnight in dark at room temperature. When the donor and acceptor are in close proximity, excitation of the donor with laser triggers a Fluorescence Resonance Energy Transfer (FRET) towards the acceptor, which in turn fluoresces at 655 nm wavelength. FRET signals were measured using a PHERAstar FSX reader (BMG Labtech). IC50 determination was performed by fitting the curve of percent inhibition versus the log of the inhibitor concentration using Dotmatics.

Test [3] concerns the target GST-tagged GDP-loaded KRAS G12V (amino acids 1-169) (Homo sapiens, UniProt P01116, G12V). The test is described as follows: KRAS G12V probe displacement assay (TR-FRET). To be noted: Table 4; KRAS G12V 2 nM, biotinylated probe 2 2.5 nM. Format: binding. On the procedure:
Plates are incubated at 24 °C for 1 hr. […] After 1 hr incubation at 24° C.

Test [4] relates to pERK1/2(THR202/TYR204) level in SW620 cell line. Briefly: KRAS G12V pERK assay in SW620 cells (HTRF). It is filed as cell-based. The note with it: Homo sapiens, SW-620, Table 4, 2 hrs compound treatment. Here is the method:
SW620 cell line was used in this study. Cells were maintained in RPMI 1640 supplemented with 10% fetal bovine serum (Thermo Fisher), 50 units/mL penicillin and streptomycin (Thermo Fisher) and kept at 37° C. in a humidified atmosphere of 5% CO2 in air. Cells were reinstated from frozen stocks that were laid down within 30 passages from the original cells purchased. 40000 cells per well were seeded into a 96-well plate and incubated overnight. Cells were treated with a 10-point dilution series. The final compound concentration is from 0 to 10 μM. After 2 hrs compound treatment, cells were lysed, and the pERK1/2(THR202/TYR204) level in the cell lysates was detected by HTRF kit (Cisbio). In brief, a total of 16 μL of cell lysate from each well of a 96-well plate was transferred to a 384-well white assay plate. Lysate from each well was incubated with 2 μL of Eu3+-cryptate (donor) labeled anti-phospho-ERK1/2 and 2 μL of D)2 (acceptor) labeled anti-phospho-ERK1/2 antibodies (Cisbio) overnight in dark at room temperature. When donor and acceptor are in close proximity, excitation of the donor with laser triggers a Fluorescence Resonance Energy Transfer (FRET) towards the acceptor, which in turn fluoresces at 655 nm wavelength. FRET signals were measured using a PHERAstar FSX reader (BMG Labtech). IC50 determination was performed by fitting the curve of percent inhibition versus the log of the inhibitor concentration using Dotmatics.

Chain of GST-tagged GDP-loaded KRAS G12V (amino acids 1-169) (P01116 1-169 isoform P01116-2 G12V): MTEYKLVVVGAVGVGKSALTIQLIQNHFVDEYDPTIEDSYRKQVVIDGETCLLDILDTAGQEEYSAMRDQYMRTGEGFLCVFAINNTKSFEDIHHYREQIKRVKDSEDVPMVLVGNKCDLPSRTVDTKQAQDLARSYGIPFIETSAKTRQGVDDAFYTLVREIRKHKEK
Chain of GST-tagged GDP-loaded KRAS G12D (amin acids 1-188) (P01116 1-188 isoform P01116-2 G12D): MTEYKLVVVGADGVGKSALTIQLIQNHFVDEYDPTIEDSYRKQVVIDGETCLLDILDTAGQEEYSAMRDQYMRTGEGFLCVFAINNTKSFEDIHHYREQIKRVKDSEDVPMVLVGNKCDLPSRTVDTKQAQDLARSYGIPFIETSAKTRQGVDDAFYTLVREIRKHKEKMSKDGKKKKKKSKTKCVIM

Usually IC50 stands for the concentration that inhibits the measured activity by half. Read a low IC50 as higher potency. Regarding `CNCCN1CCCOc2nc(-c3cc(N)cc(Cl)c3C(F)(F)F)c(F)c3nc(OC[C@@]45CCCN4C[C@H](F)C5)nc1c23` [Example 17, 3-chloro-5-(4-fluoro-2-(((2R,7aS)-2-fluorotetrahydro-1H-pyrrolizin-7a(5H)-yl)methoxy)-11-(2-(methylamino)ethyl)-8,9,10,11-tetrahydro-7-oxa-1,3,6,11-tetraazacycloocta[de]naphthalen-5-yl)-4-(trifluoromethyl)aniline], the 50% inhibitory concentration (IC50) in test [1] was found to be 9.6 nM.

Take `CNCCN1c2nc(OC[C@@]34CCCN3C[C@H](F)C4)nc3c(F)c(-c4cc(N)cc(Cl)c4C(F)(F)F)nc(c23)OCCC1C` (stereo partly drawn) [Example 20, 3-chloro-5-(4-fluoro-2-(((2R,7aS)-2-fluorotetrahydro-1H-pyrrolizin-7a(5H)-yl)methoxy)-10-methyl-11-(2-(methylamino)ethyl)-8,9,10,11-tetrahydro-7-oxa-1,3,6,11-tetraazacycloocta[de]naphthalen-5-yl)-4-(trifluoromethyl)aniline]: the IC50 is 0.43 nM in test [1] and 1010 nM in test [2].

For `CN1c2nc(OC[C@@]34CCCN3C[C@H](F)C4)nc3c(F)c(-c4cc(N)cc(Cl)c4C(F)(F)F)nc(c23)OCC2CNCC21` (stereo partly drawn) [Example 27, 3-chloro-5-(4-fluoro-2-(((2R,7aS)-2-fluorotetrahydro-1H-pyrrolizin-7a(5H)-yl)methoxy)-12-methyl-8a, 9,10,11,11a, 12-hexahydro-8H-7-oxa-1,3,6,10,12-pentaazacyclopenta[5,6]cycloocta[1,2,3-de]naphthalen-5-yl)-4-(trifluoromethyl)aniline], the IC50 was determined as 0.95 nM in test [1] and 836 nM in test [2].

For `Nc1cc(Cl)c(C(F)(F)F)c(-c2nc3c4c(nc(OC[C@@]56CCCN5C[C@H](F)C6)nc4c2F)N([C@@H]2CCNC2)CCCO3)c1` [Example 41, 3-chloro-5-(4-fluoro-2-(((2R,7aS)-2-fluorotetrahydro-1H-pyrrolizin-7a(5H)-yl)methoxy)-11-((R)-pyrrolidin-3-yl)-8,9,10,11-tetrahydro-7-oxa-1,3,6,11-tetraazacycloocta[de]naphthalen-5-yl)-4-(trifluoromethyl)aniline], the concentration for half-maximal inhibition (IC50) in test [1] was determined as 34 nM.

Turning to `CCN1c2nc(OC[C@@]34CCCN3C[C@H](F)C4)nc3c(F)c(-c4cc(N)cc(C)c4C(F)(F)F)nc(c23)OCCC12CC2` [Example 54, 3-(11-ethyl-4-fluoro-2-(((2R,7aS)-2-fluorotetrahydro-1H-pyrrolizin-7a(5H)-yl)methoxy)-8,9-dihydro-11H-7-oxa-1,3,6,11-tetraazaspiro[cycloocta[de]naphthalene-10,1′-cyclopropan]-1(11a), 2,3a, 3a^1(6a), 5-pentaen-5-yl)-5-methyl-4-(trifluoromethyl)aniline], the half-inhibitory concentration (IC50) in test [3] worked out at 1.7 nM; in test [4], 51 nM.

Consider `CCN1c2nc(OCC34CCCN3CC(F)C4)nc3c(F)c(-c4cc(N)cc(Cl)c4C(F)(F)F)nc(c23)OCCC12CC2` [Example 55, 3-chloro-5-(11-ethyl-4-fluoro-2-(((2R,7aS)-2-fluorotetrahydro-1H-pyrrolizin-7a(5H)-yl)methoxy)-8,9-dihydro-11H-7-oxa-1,3,6,11-tetraazaspiro[cycloocta[de]naphthalene-10,1′-cyclopropan]-1(11a), 2,3a, 3 al(6a), 5-pentaen-5-yl)-4-(trifluoromethyl)aniline], for which the 50% inhibitory concentration (IC50) was determined as 0.57 nM in test [3] and 41 nM in test [4].

`CCN1c2nc(OC[C@@]34CCCN3C[C@H](F)C4)nc3c(F)c(-c4cc(N)cc(C)c4C(F)(F)F)nc(c23)OCCC12COC2` [Example 56, 3-(11-ethyl-4-fluoro-2-(((2R,7aS)-2-fluorotetrahydro-1H-pyrrolizin-7a(5H)-yl)methoxy)-8,9-dihydro-11H-7-oxa-1,3,6,11-tetraazaspiro[cycloocta[de]naphthalene-10,3′-oxetan]-1(11a), 2,3a, 3a^1(6a),5-pentaen-5-yl)-5-methyl-4-(trifluoromethyl)aniline]: the IC50 in test [3] was determined as 1.2 nM; in test [4], 33 nM.

Turning to `CCN1c2nc(OC[C@@]34CCCN3C[C@H](F)C4)nc3c(F)c(-c4cc(N)cc(C)c4C(F)(F)F)nc(c23)O[C@H]2COCC[C@@H]21` [Example 57, 3-((7aR,11aS)-12-ethyl-4-fluoro-2-(((2R,7aS)-2-fluorotetrahydro-1H-pyrrolizin-7a(5H)-yl)methoxy)-7a, 8,10,11,11a, 12-hexahydro-7,9-dioxa-1,3,6,12-tetraazapleiaden-5-yl)-5-methyl-4-(trifluoromethyl)aniline], the 50% inhibitory concentration (IC50) in test [3] was found to be 0.83 nM; in test [4] it was 41 nM.

As to `CCN1c2nc(OC[C@@]34CCCN3C[C@H](F)C4)nc3c(F)c(-c4cc(N)cc(Cl)c4C(F)(F)F)nc(c23)O[C@H]2COCC[C@@H]21` [Example 58, 3-chloro-5-((7aR,11aS)-12-ethyl-4-fluoro-2-(((2R,7aS)-2-fluorotetrahydro-1H-pyrrolizin-7a(5H)-yl)methoxy)-7a, 8,10,11,11a, 12-hexahydro-7,9-dioxa-1,3,6,12-tetraazaplciaden-5-yl)-4-(trifluoromethyl)aniline], the IC50 in test [3] came out at 0.49 nM; in test [4], 29 nM.

For the compound `CN1c2nc(OCC3(C)CCC4COCCN4C3)nc3c(F)c(-c4cc(N)cc(Cl)c4C(F)(F)F)nc(c23)O[C@H]2COCC[C@@H]21` (stereo partly drawn) [Example 60, 3-chloro-5-((7aR,11aS)-4-fluoro-12-methyl-2-((7-methyloctahydropyrido[2,1-c][1,4]oxazin-7-yl)methoxy)-7a, 8,10,11,11a, 12-hexahydro-7,9-dioxa-1,3,6,12-tetraazapleiaden-5-yl)-4-(trifluoromethyl)aniline], the IC50 in test [3] is 0.63 nM; in test [4] it was 20 nM.

On to `CN1CCOC(C)(COc2nc3c4c(nc(-c5cc(N)cc(Cl)c5C(F)(F)F)c(F)c4n2)O[C@H]2COCC[C@@H]2N3C)C1` (stereo partly drawn) [Example 63, 3-chloro-5-((7aR,11aS)-2-((2,4-dimethylmorpholin-2-yl)methoxy)-4-fluoro-12-methyl-7a, 8,10,11,11a, 12-hexahydro-7,9-dioxa-1,3,6,12-tetraazapleiaden-5-yl)-4-(trifluoromethyl)aniline], for which the IC50 in test [3] is 1.1 nM; in test [4], 25 nM.

In the case of `CN1c2nc(OC[C@@]34CCCN3C[C@H](F)C4)nc3c(F)c(-c4cc(N)c(F)c(Cl)c4C(F)(F)F)nc(c23)O[C@H]2COCC[C@@H]21` [Example 66, 3-chloro-2-fluoro-5-((7aR,11aS)-4-fluoro-2-(((2R,7aS)-2-fluorotetrahydro-1H-pyrrolizin-7a(5H)-yl)methoxy)-12-methyl-7a, 8,10,11,11a, 12-hexahydro-7,9-dioxa-1,3,6,12-tetraazapleiaden-5-yl)-4-(trifluoromethyl)aniline], the IC50 in test [3] was 0.47 nM; in test [4], 5.8 nM.

For the compound `Cc1c(F)c(N)cc(-c2nc3c4c(nc(OC[C@@]56CCCN5C[C@H](F)C6)nc4c2F)N(C)[C@H]2CCOC[C@@H]2O3)c1C(F)(F)F` [Example 67, 2-fluoro-5-((7aR,11aS)-4-fluoro-2-(((2R,7aS)-2-fluorotetrahydro-1H-pyrrolizin-7a(5H)-yl)methoxy)-12-methyl-7a, 8,10,11,11a, 12-hexahydro-7,9-dioxa-1,3,6,12-tetraazapleiaden-5-yl)-3-methyl-4-(trifluoromethyl)aniline], the values for the concentration for half-maximal inhibition (IC50) in test [3] and in test [4] were 0.65 nM and 12 nM, respectively.
